This is an account of results in patent US7652067B2, “Aqueous compositions containing monoester salts” (Millenium Specialty Chemicals, Inc., priority 2006, dated 2010).

A short description of series [1]: Control experiment: stirring hydrophobic compound with pure water. Particulars: for control experiment with water: outcome: compound stirred with water without solubilizer.
Series [2] in a line: Solubilization of hydrophobic organic compound in aqueous sodium monomenthyl glutarate (Na-MMG). Particulars: for concentration of hydrophobic compound in clear, homogeneous solution in aqueous Na-MMG: MMG neutralised with 8.8% aqueous sodium bicarbonate; for times better dissolved in aqueous Na-MMG than in pure water: aqueous Na-MMG vs pure water.
Description: Aqueous sodium bicarbonate (98 g, 8.8% solution) is added over about 20 minutes to a stirred mixture of monomenthyl glutarate (“MMG,” 25 g) and dodecane (3.0 g). After the addition is complete and CO2 evolution stops, the mixture is stirred for 2 h and is then allowed to settle. The resulting mixture is a clear, homogeneous solution of dodecane (˜2.5%) in aqueous sodium monomenthyl glutarate (Na-MMG).
A clear aqueous solution of Na-MMG is obtained by reacting monomenthyl glutarate (25 g) with aqueous sodium bicarbonate (98 g of 8.8% solution). […] The mixture stirs for about 2 h and is allowed to cool to ambient temperature. […] Dilution with an equal volume of water produces a solution that remains clear for more than 40 days.
Aqueous sodium bicarbonate (196 g, 8.8% solution) is added to a stirred mixture of monomenthyl glutarate (50 g) and N-ethyl-p-menthane-3-carboxamide (“WS-3,” 2.0 g). After the addition is complete and CO2 evolution stops, the mixture is stirred for 1 h and is then allowed to sit overnight. The resulting mixture is a clear, homogeneous solution of WS-3 (˜0.83%) in aqueous Na-MMG.
More WS-3 (1.0 g) is added to the aqueous composition. The mixture stirs for 1 h and is allowed to stand overnight. The mixture is filtered to remove undissolved crystals (0.6 g).
Dilution with an equal volume of water produces a solution that remains clear for more than 40 days.
The nature of series [3]: Organoleptic test of physiological cooling effect.
Excerpt: The resulting mixture is a clear, homogeneous solution of WS-3 (˜0.83%) in aqueous Na-MMG.
Series [4] can be described thus: Dilution of the clear aqueous composition with an equal volume of water (clarity / emulsification). The series is classed as physicochemical. The following applies: clear composition in aqueous Na-MMG diluted 1:1 with water. On the procedure: It may be desirable to dilute the aqueous compositions with water. The amount of water that can be added while maintaining a clear aqueous solution depends on many factors known to those skilled in the art, including the nature of the hydrophobic organic compound, the particular monoester salt, the concentration of each of these components, and other factors. In general, the desirability of diluting the aqueous composition is determined empirically.

The nature of series [5]: Solubilization of hydrophobic organic compound in aqueous sodium monooctyl glutarate (Na-MOG). The series is classed as physicochemical. The following applies: MOG 22.6 g, procedure of Example 1. The text has this:
The procedure of Example 1 is followed except that monooctyl glutarate (MOG, 22.6 g) and p-cymene (5 g) are used. The resulting mixture is a clear, homogeneous solution of p-cymene (˜4.4%) in aqueous sodium monooctyl glutarate (Na-MOG).

A short description of series [6]: Solubilization of hydrophobic organic compound in aqueous sodium monomenthyl succinate (Na-MMS). It counts as physicochemical. The following applies: MMS 23.7 g, procedure of Example 1. The text has this: The procedure of Example 1 is followed except that monomenthyl succinate (MMS, 23.7 g) and p-cymene (3 g) are used. The resulting mixture is a clear, homogeneous solution of p-cymene (˜2.5%) in aqueous sodium monomenthyl succinate (Na-MMS).

SMILES strings stand for the structures.

On to `CCNC(=O)[C@@H]1C[C@H](C)CC[C@H]1C(C)C` [WS-3, N-ethyl-p-menthane-3-carboxamide], for which the “solubility in pure water” value in series [1] (20° C.) is given as roughly 0.03%. In series [2], the “concentration of hydrophobic compound in clear, homogeneous solution in aqueous Na-MMG” value (“concentration … in aqueous Na-MMG” below) is on record as roughly 0.83% and the “times better dissolved in aqueous Na-MMG than in pure water” value (shortened to “times better dissolved”) is “about 33 times”. Moreover, the “concentration of WS-3 in filtrate (aqueous Na-MMG) after removing undissolved crystals” value in series [2] (more WS-3 added, stood overnight, filtered) was roughly 1.0%. The “cooling effect when tested organoleptically” value in series [3] (filtrate, ~1.0% WS-3 in aqueous Na-MMG) was “strong cooling effect”. Moreover, the “cooling effect when tested organoleptically” value in series [3] (~0.83% WS-3 in aqueous Na-MMG, pH 7.4) is reported as “strong cooling effect”.

`CC(C)=CCCC(C)CCO` (stereo not drawn) [citronellol]: the “control experiment with water: outcome” value in series [1] is given as “fail to produce a homogeneous mixture”. Also, the “concentration … in aqueous Na-MMG” value in series [2] was roughly 3.6%. The “time solution remains clear after dilution with an equal volume of water” value (from here on “time solution remains clear”) in series [4] is reported as “more than 40 days”.

Regarding `CC(C)=CCCC(C)CC#N` (stereo not drawn) [citronellyl nitrile], the “control experiment with water: outcome” value in series [1] was “fail to produce a homogeneous mixture”. Besides, in series [2], the “concentration … in aqueous Na-MMG” value is reported as roughly 3.6%. Moreover, the “emulsification after dilution with an equal volume of water” value (from here on “emulsification after dilution”) in series [4] is “immediately produces an emulsion”.

Consider `C=C(C)[C@H]1CC=C(C)CC1` [d-limonene], for which the “control experiment with water: outcome” value in series [1] is reported as “fails to produce a homogeneous mixture”.

As to `CCCCCCCCCCCC` [dodecane], in series [1] (12 g stirred with 876 g water for 2 h), the “undissolved compound recovered after settling” value is recorded as 11.6 g. Further, in series [1], the “control experiment with water: outcome” value was “fails to produce a homogeneous mixture”. Further, in series [2], the “concentration … in aqueous Na-MMG” value is on record as roughly 2.5% and the “times better dissolved” value was “at least 50 times”. In addition, the “emulsification after dilution” value in series [4] was “emulsifies within two days”.

For `C=C(C)[C@@H]1CC=C(C)C(=O)C1` [l-carvone], the “control experiment with water: outcome” value in series [1] is given as “fail to produce a homogeneous mixture”. In addition, the “concentration … in aqueous Na-MMG” value in series [2] was roughly 3.6%. In addition, the “time solution remains clear” value in series [4] was “more than 40 days”.

In the case of `CC(C)[C@@H]1CC[C@@H](C)C[C@H]1O` [l-menthol], the “menthol content of aqueous solution in pure water control (gas chromatography)” value in series [1] (12 g in 876 g water, 2 h, initially 47° C. then ambient, filtered) was found to be 0.06%. Moreover, in series [1], the “control experiment with water: outcome” value was “no homogeneous mixture results”. Also, in series [2], the “concentration … in aqueous Na-MMG” value is given as roughly 2.5% and the “times better dissolved” value was “at least 40 times”. In series [3] (~2.5% l-menthol solution in aqueous Na-MMG), the “physiological cooling effect (organoleptic test)” value was “strong physiological cooling effect”. The “time solution remains clear” value in series [4] was “more than 40 days”.

Take `CC(C)[C@@H]1CC[C@@H](C)C[C@H]1OC(=O)[C@H](C)O` [l-menthyl lactate]: the “control experiment with water: outcome” value in series [1] is reported as “fail to produce a homogeneous mixture”. In series [4], the “time solution remains clear” value is recorded as “more than 40 days”.

Turning to `C=CC(C)(O)CCC=C(C)C` (stereo not drawn) [linalool], the “control experiment with water: outcome” value in series [1] is “fail to produce a homogeneous mixture”. Besides, the “concentration of hydrophobic compound in clear, homogeneous solution in aqueous Na-MOG” value (from here on “concentration … in aqueous Na-MOG”) in series [5] is roughly 2.7%.

For the molecule `Cc1ccc(C(C)C)cc1` [p-cymene], the “concentration of hydrophobic compound in clear, homogeneous solution in aqueous Na-MMS” value in series [6] is roughly 2.5%. For the same molecule, in series [1], the “control experiment with water: outcome” value was “fail to produce a homogeneous mixture”. In series [5], the “concentration … in aqueous Na-MOG” value is roughly 4.4%. Besides, in series [2], the “concentration … in aqueous Na-MMG” value is roughly 3.6%. In addition, the “emulsification after dilution” value in series [4] was no more than 2 days.

`Cc1c(C)c2c(c(C)c1O)CCC(C)(CCCC(C)CCCC(C)CCCC(C)C)O2` (stereo not drawn) [α-tocopherol]: the “control experiment with water: outcome” value in series [1] was “fail to produce a homogeneous mixture”. In series [5], the “concentration … in aqueous Na-MOG” value is recorded as roughly 2.6%. For the same molecule, the “time solution remains clear” value in series [4] is recorded as “more than 40 days”.
